Assay results as given in US20230165906A1, “COMPOSITIONS AND METHODS FOR USING TRANSPLANTED MICROGLIA AS A VEHICLE FOR WIDESPREAD DELIVERY OF CELLS AND OTHER BIOLOGIC AGENTS TO THE BRAIN” (Albert Einstein College of Medicine, priority 2020, published 2023).

How the values were obtained:
[1] = system: cultured human primary microglia; assay: Screening of human microglia for resistance to PLX5622-induced cell death; format: cell-based; conditions: for resistance to PLX5622-mediated cell ablation: mutant CSF1R expressed in cultured human primary microglia via retrovirus infection
Description: (§1) FIGS. 5A-I show screening of human and mouse microglia for resistance to PLX5622. Human microglia (5A) are normally susceptible to CSF1R antagonist PLX5622-induced cell death (5B). […] Similarly, mouse microglia (5G) are normally susceptible to CSF1R antagonist-induced cell death (5H).
Although dispersion of mouse microglia was achieved using the protocol described in Example 2, continued genetic ablation of host microglia after transplantation of donor microglia cannot likely be used in a clinical setting. Therefore, to achieve dispersion of microglia independent of any genetic manipulations, a novel method to make microglia resistant to ablation by a CSF1R inhibitor such as PLX5622 was developed. Based on the mechanism of action of PLX5622 (antagonizing the critical CSF1R receptor), mutant forms of CSF1R that are constitutively active and potentially convey resistance to PLX5622 were screened (FIG. 5). […] Mutant CSF1Rs were expressed in human donor microglia via retrovirus infection. Such PLX5622-resistant microglia can then be transplanted to hosts in which endogenous microglia are continuously being depleted pharmacologically with PLX5622 post transplantation to allow donor microglia to outcompete residual endogenous microglia for repopulation. We are currently testing resistance of microglia expressing CSFIR^L301S and others to PLX5622 ablation in vivo.

mouse microglia = assay: Screening of mouse microglia for resistance to PLX5622-induced cell death; format: cell-based; conditions: no mutant CSF1R
Description: as §1

host microglia = assay: Pharmacological ablation of host microglia in vivo (Iba1 staining); conditions: PLX5622 given to mice via chow for 7 days prior to transplantation
Description: For pharmacological ablation of host microglia, PLX5622 (Plexxikon Inc.), a drug that inhibits CSF1R, was given to the mice via chow for 7 days prior to transplantation. This treatment kills approximately 90% of host microglia (FIG. 3). PLX5622 is a blood-brain-barrier permeable drug in clinical trials. Two days before transplantation, PLX5622 treatment was stopped to avoid potentially killing donor cells. […]. Thus, with daily injection of tamoxifen, donor microglia outcompete host microglia for repopulation.

Molecule | resistance to PLX5622-mediated cell ablation [1] | susceptibility to CSF1R antagonist-induced cell death (mouse microglia) | host microglia killed (host microglia) | susceptibility to CSF1R antagonist PLX5622-induced cell death ([1]; human microglia, no mutant CSF1R)
CSF1R^L301S: constitutively active gain-of-function mutant CSF1R expressed in donor microglia | high resistance |  |  | 
COc1ncc(F)cc1CNc1ccc(Cc2c[nH]c3ncc(C)cc23)c(F)n1 [PLX5622, 6-fluoro-N-[(5-fluoro-2-methoxypyridin-3-yl)methyl]-5-[(5-methyl-1H-pyrrolo[2,3-b]pyridin-3-yl)methyl]pyridin-2-amine] |  | susceptible | approximately 90% | susceptible
CSR1R^Y571D: constitutively active gain-of-function mutant CSF1R expressed in donor microglia | high resistance |  |  | 
CSR1R^Y969F: constitutively active gain-of-function mutant CSF1R expressed in donor microglia | high resistance |  |  | 
